Species: Rattus norvegicus
Assay: Open TG-GATES - Regimen: Single
Format: toxicity, organism-based, Sprague-Dawley
Parameters: regimen Single, gender Male, age 6 weeks
Conditions: in vivo, po, route gavage; for APTT / Bas / Eos / Fbg / Hb / Ht / Lym / MCH / MCHC / MCV / Mono / Neu / PT / Plat / RBC / Ret / WBC: tissue Blood; for KIDNEY_L / KIDNEY_R / KIDNEY_TOTAL: tissue Kidney; for LIVER: tissue Liver; for A/G / ALP / ALT / AST / BUN / CRE / Ca / Cl / DBIL / GLC / IP / K / LDH / Na / PL / RALB / TBIL / TC / TG / TP / gamma-GTP: tissue Plasma
[1] = 0 mg/kg, 3 h, dose level Control
[2] = 0 mg/kg, 6 h, dose level Control
[3] = 0 mg/kg, 9 h, dose level Control
[4] = 0 mg/kg, 24 h, dose level Control
[5] = 100 mg/kg, 24 h, dose level Low

## CNC(=C[N+](=O)[O-])NCCSCc1ccc(CN(C)C)o1 [RANITIDINE]
[1]
  TERMINAL_BW: 216.9 g
  APTT: 20.3 s
  Bas: 0%
  Eos: 0.4%
  Fbg: 215 mg/dL
  Hb: 13.7 g/dL
  Ht: 39.6%
  Lym: 83.4%
  MCH: 21.8 pg
  MCHC: 34.7%
  MCV: 62.8 fL
  Mono: 2.6%
  Neu: 10.2%
  PT: 12.4 s
  Plat: 114.3 x10_4/uL
  RBC: 632.2 x10_4/ul
  Ret: 6.8%
  WBC: 87.5 x10_2/uL
  KIDNEY_L: 1 g
  KIDNEY_R: 1 g
  KIDNEY_TOTAL: 1.9 g
  LIVER: 9.7 g
  A/G: 1.6
  ALP: 1059 IU/L
  ALT: 36.4 IU/L
  AST: 70.2 IU/L
  BUN: 10.8 mg/dL
  CRE: 0.4 mg/dL
  Ca: 10.8 mg/dL
  Cl: 103 meq/L
  DBIL: 0.068 mg/dL
  GLC: 188.2 mg/dL
  IP: 8.4 mg/dL
  K: 3.8 meq/L
  LDH: 130.4 IU/L
  Na: 140.8 meq/L
  PL: 136.8 mg/dL
  RALB: 3.3 g/dL
  TBIL: 0.1 mg/dL
  TC: 75.2 mg/dL
  TG: 50.8 mg/dL
  TP: 5.3 g/dL
  gamma-GTP: 1 IU/L
[2]
  TERMINAL_BW: 213.6 g
  APTT: 19.4 s
  Bas: 0%
  Eos: 1%
  Fbg: 238.2 mg/dL
  Hb: 13.6 g/dL
  Ht: 38.7%
  Lym: 79%
  MCH: 22.3 pg
  MCHC: 35%
  MCV: 63.7 fL
  Mono: 2.6%
  Neu: 15.8%
  PT: 12.2 s
  Plat: 123.3 x10_4/uL
  RBC: 608.8 x10_4/ul
  Ret: 7.6%
  WBC: 97.4 x10_2/uL
  KIDNEY_L: 0.9 g
  KIDNEY_R: 0.9 g
  KIDNEY_TOTAL: 1.9 g
  LIVER: 9.5 g
  A/G: 1.7
  ALP: 839.8 IU/L
  ALT: 35.2 IU/L
  AST: 64.6 IU/L
  BUN: 10.2 mg/dL
  CRE: 0.4 mg/dL
  Ca: 10.7 mg/dL
  Cl: 102.8 meq/L
  DBIL: 0.066 mg/dL
  GLC: 195.2 mg/dL
  IP: 8.6 mg/dL
  K: 3.9 meq/L
  LDH: 111 IU/L
  Na: 140.2 meq/L
  PL: 146 mg/dL
  RALB: 3.4 g/dL
  TBIL: 0.1 mg/dL
  TC: 84.2 mg/dL
  TG: 55.4 mg/dL
  TP: 5.4 g/dL
  gamma-GTP: 1 IU/L
[3]
  TERMINAL_BW: 211.2 g
  APTT: 20.2 s
  Bas: 0%
  Eos: 1%
  Fbg: 230 mg/dL
  Hb: 13.6 g/dL
  Ht: 39.1%
  Lym: 81%
  MCH: 21.7 pg
  MCHC: 34.8%
  MCV: 62.4 fL
  Mono: 2%
  Neu: 14.2%
  PT: 12.3 s
  Plat: 120.9 x10_4/uL
  RBC: 627.6 x10_4/ul
  Ret: 7%
  WBC: 71.4 x10_2/uL
  KIDNEY_L: 1 g
  KIDNEY_R: 1 g
  KIDNEY_TOTAL: 1.9 g
  LIVER: 8.8 g
  A/G: 1.6
  ALP: 783.8 IU/L
  ALT: 29.8 IU/L
  AST: 62.8 IU/L
  BUN: 10 mg/dL
  CRE: 0.4 mg/dL
  Ca: 10.5 mg/dL
  Cl: 103.2 meq/L
  DBIL: 0.066 mg/dL
  GLC: 210.8 mg/dL
  IP: 8.5 mg/dL
  K: 3.9 meq/L
  LDH: 122.8 IU/L
  Na: 141.2 meq/L
  PL: 134 mg/dL
  RALB: 3.4 g/dL
  TBIL: 0.1 mg/dL
  TC: 76.8 mg/dL
  TG: 28.8 mg/dL
  TP: 5.5 g/dL
  gamma-GTP: 1.2 IU/L
[4]
  TERMINAL_BW: 228.8 g
  APTT: 21.3 s
  Bas: 0.2%
  Eos: 1%
  Fbg: 227.4 mg/dL
  Hb: 13.7 g/dL
  Ht: 39.1%
  Lym: 83.6%
  MCH: 22.5 pg
  MCHC: 35.2%
  MCV: 63.9 fL
  Mono: 2.2%
  Neu: 11.8%
  PT: 11.9 s
  Plat: 130.4 x10_4/uL
  RBC: 611.2 x10_4/ul
  Ret: 6.6%
  WBC: 112 x10_2/uL
  KIDNEY_L: 1 g
  KIDNEY_R: 1 g
  KIDNEY_TOTAL: 2.1 g
  LIVER: 10.9 g
  A/G: 1.6
  ALP: 872.4 IU/L
  ALT: 38.8 IU/L
  AST: 62.6 IU/L
  BUN: 16 mg/dL
  CRE: 0.4 mg/dL
  Ca: 10.8 mg/dL
  Cl: 102.4 meq/L
  DBIL: 0.094 mg/dL
  GLC: 190.2 mg/dL
  IP: 7.7 mg/dL
  K: 4.1 meq/L
  LDH: 121 IU/L
  Na: 140.6 meq/L
  PL: 148.8 mg/dL
  RALB: 3.5 g/dL
  TBIL: 0.1 mg/dL
  TC: 77.2 mg/dL
  TG: 78.6 mg/dL
  TP: 5.7 g/dL
  gamma-GTP: 1 IU/L
100 mg/kg, 3 h, dose level Low
  TERMINAL_BW: 216.8 g
  APTT: 19.1 s
  Bas: 0%
  Eos: 1%
  Fbg: 225.4 mg/dL
  Hb: 13.7 g/dL
  Ht: 39.7%
  Lym: 76.8%
  MCH: 22.3 pg
  MCHC: 34.5%
  MCV: 64.5 fL
  Mono: 2.8%
  Neu: 15.2%
  PT: 12.1 s
  Plat: 118 x10_4/uL
  RBC: 616 x10_4/ul
  Ret: 7.4%
  WBC: 87.6 x10_2/uL
  KIDNEY_L: 1 g
  KIDNEY_R: 1 g
  KIDNEY_TOTAL: 2 g
  LIVER: 10.3 g
  A/G: 1.6
  ALP: 1082.6 IU/L
  ALT: 38.2 IU/L
  AST: 66.6 IU/L
  BUN: 11.4 mg/dL
  CRE: 0.4 mg/dL
  Ca: 10.7 mg/dL
  Cl: 103.8 meq/L
  DBIL: 0.078 mg/dL
  GLC: 190.6 mg/dL
  IP: 8.7 mg/dL
  K: 3.7 meq/L
  LDH: 153 IU/L
  Na: 141 meq/L
  PL: 137.8 mg/dL
  RALB: 3.4 g/dL
  TBIL: 0.1 mg/dL
  TC: 73.2 mg/dL
  TG: 57.4 mg/dL
  TP: 5.6 g/dL
  gamma-GTP: 1.2 IU/L
100 mg/kg, 6 h, dose level Low
  TERMINAL_BW: 216.3 g
  APTT: 17.7 s
  Bas: 0%
  Eos: 0.6%
  Fbg: 229.6 mg/dL
  Hb: 12.9 g/dL
  Ht: 37.1%
  Lym: 73.2%
  MCH: 22 pg
  MCHC: 34.8%
  MCV: 63.2 fL
  Mono: 2.2%
  Neu: 19.6%
  PT: 12.3 s
  Plat: 118.8 x10_4/uL
  RBC: 588 x10_4/ul
  Ret: 7.3%
  WBC: 96.3 x10_2/uL
  KIDNEY_L: 1 g
  KIDNEY_R: 1 g
  KIDNEY_TOTAL: 2 g
  LIVER: 9.3 g
  A/G: 1.7
  ALP: 929.4 IU/L
  ALT: 34 IU/L
  AST: 66.4 IU/L
  BUN: 9.6 mg/dL
  CRE: 0.4 mg/dL
  Ca: 10.5 mg/dL
  Cl: 103.4 meq/L
  DBIL: 0.074 mg/dL
  GLC: 198 mg/dL
  IP: 8.6 mg/dL
  K: 3.8 meq/L
  LDH: 168.8 IU/L
  Na: 140.4 meq/L
  PL: 134.2 mg/dL
  RALB: 3.4 g/dL
  TBIL: 0.1 mg/dL
  TC: 73 mg/dL
  TG: 52.8 mg/dL
  TP: 5.4 g/dL
  gamma-GTP: 1.4 IU/L
100 mg/kg, 9 h, dose level Low
  TERMINAL_BW: 213.4 g
  APTT: 19.1 s
  Bas: 0%
  Eos: 1%
  Fbg: 217.2 mg/dL
  Hb: 13.2 g/dL
  Ht: 37.7%
  Lym: 72%
  MCH: 22.1 pg
  MCHC: 34.9%
  MCV: 63.3 fL
  Mono: 2.6%
  Neu: 21.8%
  PT: 12.6 s
  Plat: 116.5 x10_4/uL
  RBC: 596.2 x10_4/ul
  Ret: 7.2%
  WBC: 81.2 x10_2/uL
  KIDNEY_L: 1 g
  KIDNEY_R: 1 g
  KIDNEY_TOTAL: 1.9 g
  LIVER: 8.4 g
  A/G: 1.6
  ALP: 835.8 IU/L
  ALT: 32.2 IU/L
  AST: 68 IU/L
  BUN: 10 mg/dL
  CRE: 0.3 mg/dL
  Ca: 10.3 mg/dL
  Cl: 103.4 meq/L
  DBIL: 0.062 mg/dL
  GLC: 194.2 mg/dL
  IP: 8.4 mg/dL
  K: 3.6 meq/L
  LDH: 144.4 IU/L
  Na: 140.4 meq/L
  PL: 132.6 mg/dL
  RALB: 3.3 g/dL
  TBIL: 0.1 mg/dL
  TC: 78.6 mg/dL
  TG: 22.2 mg/dL
  TP: 5.3 g/dL
  gamma-GTP: 1.4 IU/L
[5]
  TERMINAL_BW: 226.3 g
  APTT: 19.4 s
  Bas: 0%
  Eos: 1%
  Fbg: 227 mg/dL
  Hb: 13.9 g/dL
  Ht: 39.7%
  Lym: 79.2%
  MCH: 22.7 pg
  MCHC: 35.2%
  MCV: 64.4 fL
  Mono: 2.4%
  Neu: 15.2%
  PT: 12 s
  Plat: 116.2 x10_4/uL
  RBC: 617.2 x10_4/ul
  Ret: 6.5%
  WBC: 100.7 x10_2/uL
  KIDNEY_L: 1 g
  KIDNEY_R: 1 g
  KIDNEY_TOTAL: 2 g
  LIVER: 10.7 g
  A/G: 1.5
  ALP: 931.8 IU/L
  ALT: 33.8 IU/L
  AST: 65.6 IU/L
  BUN: 14.4 mg/dL
  CRE: 0.4 mg/dL
  Ca: 10.8 mg/dL
  Cl: 102.2 meq/L
  DBIL: 0.086 mg/dL
  GLC: 196.6 mg/dL
  IP: 7.6 mg/dL
  K: 4 meq/L
  LDH: 147.8 IU/L
  Na: 140.2 meq/L
  PL: 142.8 mg/dL
  RALB: 3.3 g/dL
  TBIL: 0.1 mg/dL
  TC: 70.8 mg/dL
  TG: 90 mg/dL
  TP: 5.5 g/dL
  gamma-GTP: 1 IU/L
